The target in one data set is T1, human GluR4B receptor (Homo sapiens, UniProt P48058).
T1 construct: expressed in transfected cells
T1 sequence (P48058 21-902): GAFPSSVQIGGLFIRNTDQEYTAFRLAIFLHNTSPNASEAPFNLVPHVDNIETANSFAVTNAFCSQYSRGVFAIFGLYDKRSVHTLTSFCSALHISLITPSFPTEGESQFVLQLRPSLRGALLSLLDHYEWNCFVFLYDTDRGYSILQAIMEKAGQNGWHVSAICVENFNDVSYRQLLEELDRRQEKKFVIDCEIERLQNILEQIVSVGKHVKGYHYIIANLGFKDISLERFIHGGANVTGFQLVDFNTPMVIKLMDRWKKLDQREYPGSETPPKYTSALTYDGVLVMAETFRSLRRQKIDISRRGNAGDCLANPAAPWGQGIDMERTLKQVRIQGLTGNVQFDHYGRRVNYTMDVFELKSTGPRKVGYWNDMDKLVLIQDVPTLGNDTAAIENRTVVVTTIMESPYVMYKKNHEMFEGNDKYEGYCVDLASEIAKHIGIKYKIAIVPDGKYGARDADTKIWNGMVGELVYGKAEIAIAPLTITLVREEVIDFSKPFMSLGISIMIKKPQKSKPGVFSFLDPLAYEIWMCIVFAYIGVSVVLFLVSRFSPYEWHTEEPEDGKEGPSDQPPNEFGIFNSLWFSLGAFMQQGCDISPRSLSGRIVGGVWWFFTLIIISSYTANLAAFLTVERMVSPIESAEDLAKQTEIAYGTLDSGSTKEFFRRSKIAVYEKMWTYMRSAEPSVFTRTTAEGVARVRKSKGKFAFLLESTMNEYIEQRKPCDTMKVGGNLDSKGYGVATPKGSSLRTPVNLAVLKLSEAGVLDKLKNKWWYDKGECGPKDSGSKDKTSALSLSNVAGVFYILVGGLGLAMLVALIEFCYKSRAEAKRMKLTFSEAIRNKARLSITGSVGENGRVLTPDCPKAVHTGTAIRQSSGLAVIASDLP
Description: potentiation of agonist-induced excitability of human GluR4B receptor expressed in HEK 293 cells. The class given is cell-based. The text has this: The ability of compounds of formula I to potentiate glutamate receptor-mediated response may be determined using fluorescent calcium indicator dyes (Molecular Probes, Eugene, Oreg., Fluo-3) and by measuring glutamate-evoked efflux of calcium into GluR^4 transfected HEK293 cells, as described in more detail below.
In one test, 96 well plates containing confluent monolayers of HEK cells stably expressing human GluR4B (obtained as described in European Patent Application Publication Number EP-A1-583917) are prepared. The tissue culture medium in the wells is then discarded, and the wells are each washed once with 200 μl of buffer (glucose, 10 mM, sodium chloride, 138 mM, magnesium chloride, 1 mM, potassium chloride, 5 mM, calcium chloride, 5 mM, N-[2-hydroxyethyl]piperazine-N-[2-ethanesulfonic acid], 10 mM, to pH 7.1 to 7.3). […]
Each test is then performed as follows. […] A second fluorescent reading is taken after 5 minutes incubation. 15 μl of 400 μM glutamate solution is then added to each well (final glutamate concentration 100 μM), and a third reading is taken. The activities of test compounds and cyclothiazide solutions are determined by subtracting the second from the third reading (fluorescence due to addition of glutamate in the presence or absence of test compound or cyclothiazide) and are expressed relative to enhance fluorescence produced by 100 μM cyclothiazide.
For `NS(=O)(=O)c1cc2c(cc1Cl)NC(C1CC3C=CC1C3)NS2(=O)=O` (stereo not drawn) [cyclothiazide], the “potentiation of agonist-induced excitability” value is on record as “potentiate agonist-induced excitability”.

System in the next data set: not given
Assay: not given
`CCOCC(=O)Nc1ccc(C(C)CNS(=O)(=O)C(C)C)cc1` (stereo not drawn): the melting point – broadly, the temperature, or range, at which the solid turns liquid – is 113 to 116 °C.
`CC(CNS(=O)(=O)C(C)C)c1ccc(-c2ccc(OCCN3CCCC3)cc2)cc1.Cl` (stereo not drawn) came in with a melting point of 172 to 173 °C.
On the same count and under the same terms, as for `CC(CNS(=O)(=O)C(C)C)c1ccc(NC(=O)CN(C)C)cc1.O=C(O)/C=C\C(=O)O` (stereo not drawn), the figure is 120 to 122 °C.
On the same count and under the same terms, as for `CC(CNS(=O)(=O)C(C)C)c1ccc(NC(=O)CN2CCCCC2)cc1` (stereo not drawn), the figure is 139 to 141 °C; as for `CC(CNS(=O)(=O)C(C)C)c1ccc(NC(=O)COc2ccccn2)cc1` (stereo not drawn), 176 to 178 °C.

Source of the values: patent US6693137B1, “Sulphonamide derivatives” (Eli Lilly and Company, priority 1998, dated 2004).
